Literature values in patent US20090197955A1, “METHODS OF IMPROVING DHA DEPOSITION AND RELATED FUNCTION AND/OR DEVELOPMENT” (Monsanto Company, priority 2008, published 2009).

Settings: prior studies; cited from earlier work

CC/C=C\C/C=C\C/C=C\C/C=C\CCCCC(=O)O [SDA, stearidonic acid]
DHA concentrations in blood or tissues after feeding SDA: failed to find evidence of increased DHA concentrations
